Laboratory results reported in patent US20230235374A1, “High Throughput Assays for Detecting Translation Readthrough Inducers” (The Trustees of the University of Pennsylvania, priority 2021, published 2023).

How the values were obtained:
[1] = test system: Atto(pep)-Stop-POST5 (RFC-dependent termination); assay: Plate reader fluorescence anisotropy assay of pentapeptide release; type: biochemical, shrimp (Artemia salina); settings: added ataluren 200-1,000 μM
Protocol: Plate reader assays were run in a Tecan F200® 96-well plate reader (Greiner® black, non-binding, chimney flat) equipped with 640 nm excitation and 700 nm polarization filters using 96-well plates. Atto(pep)-Stop-POST5 in Buffer 4 (0.1 μM, 80 μl) containing GTP (1 mM) was added to plate wells±ataluren at 25° C. eRF1 and eRF3 aliquots stored at −80° C. were thawed for 15 s at 37° C. and added directly to a premade ice-cold GTP (1 mM)±ataluren solution in Buffer 4. The resulting release factor solution was incubated at 25° C. for 1 min, and then added quickly in 80 μL portions to the Atto(pep)-Stop-POST5 containing wells with a multichannel pipette to the Atto(pep)-Stop-Posts wells. The final concentrations were: eRF1, 0.025-0.4 μM; eRF3, 0.8 μM; Atto(pep)-Stop-Posts, 0.05 μM. Fluorescence anisotropy decay graphs were fit with GraphPad Prism, using the one phase decay model to obtain peptide dissociation rates.
Ensemble fluorescence anisotropy results using Atto(pep)-Stop-POST5. The fluorescence anisotropy of the pentapeptidyl moiety of Atto(pep)-Stop-POST5 was quite high (0.22), and decreased following addition of RFC, providing a convenient measure of the rate of pentapeptide release from the ribosome. […] Each such time dependency could be fit to a single exponential, giving the collected rate constants presented in FIG. 9G, in which the rate dependence as a function of RFC concentration was measured at 0, 200, 500, and 1,000 μM ataluren. In the absence of ataluren, EC50 (0.029±0.002 μM) and Vmax (0.31±0.02) values were obtained for pentapeptide release similar to those measured by smTIRF. In addition, as with the smTIRF results, Vmax values were unaffected by added ataluren but EC50 values increased, reaching ˜0.06 μM at 1000 μM.

[2] = test system: RNA of Stop-POST5 and 80S.IRES complexes; assay: LASER-seq mutational profiling of AzAt photoincorporation sites; type: binding, shrimp (Artemia salina); settings: 300 μM AzAt
Protocol: RNA-Seq procedures employed closely follow those published (Zinshteyn et al., Nucleic Acids Res, 47, 43-55 (2019); McClary et al., Cell Chem Biol, 24, 605-613 e605 (2017)) except as noted.
Library preparation. RNA-seq libraries were prepared for PAL, PRE, UV, and NUL samples, as defined in Results, of Stop-POST5 and 80S.IRES complexes, using published procedures (Zinshteyn et al., Nucleic Acids Res, 47, 43-55 (2019); McClary et al., Cell Chem Biol, 24, 605-613 e605 (2017)) with the slight modifications that a 12% 0.13 M Tris/45 mM Borate/2.5 mM EDTA (pH 7.6))—Urea PAGE gel replaced a 10% PAGE gel and the selected RNA fragment size was 40-70 bp rather than 60-70 bp. In brief, RNA was extracted and randomly fragmentated by ZnCl2 (Sigma). After separation on the TBE-Urea PAGE gel, RNA fragments, visualized by ethidium bromide staining (used for all RNA gels) were sliced and extracted from the gel by crushing the gel and vigorously shaking (1400 rpm) at 70° C. in 400 μL of water for 15 min. The 3′ ends were dephosphorylated by T4 Polynucleotide Kinase (New England Biolab). The miRNA cloning linker 2 (5′App/[…]/3′ddC (SEQ ID NO: 11), Integrated DNA Technologies) was used as the universal 3′ linker and pre-adenylated using the 5′ DNA Adenylation Kit (New England Biolab) with the provided protocol. Reverse transcription, self-circularization, and PCR amplification were performed essentially the same as previously described (McClary et al., Cell Chem Biol, 24, 605-613 e605 (2017)). Library sequencing was performed on Illumina NextSeq with single-end mode for up to 75 bp read length.
Data processing. Sequencing reads were processed by Cutadapt 2.10 (cutadapt.readthedocs.io/en/stable/) to remove 3′ end linkers and then inputted into Shapemapper2 (Busan et al., RNA, 24(2):143-148 (2018)) to count the mutations and effective sequencing reads, using the STAR Aligner mode (Dobin et al., STAR: ultrafast universal RNA-seq aligner. Bioinformatics. 29:15-21 (2013)). The mutation rate of each nucleotide was calculated by dividing the number of the reads containing the mutations by the total number of reads, outputted as N.
For the PAL sample, the mutation rate fold change was calculated by dividing the mutation rate of the PAL sample by the mutation rate of the PRE sample. The average mutation count was calculated by averaging the number of mutations of the PAL and PRE samples. MA plots (FIG. 3A, FIG. 3B, FIG. 3C and FIG. 3D) were charted by plotting the mutation rate fold change of each nucleotide as a function of the average mutation count of each nucleotide. To determine possibly significant sites of AzAt labeling, the dataset was first screened for points that meet the criteria of a mutation rate fold change ≥1.5 and an average mutation count ≥100. Points meeting these criteria were further screened with Z-factor >0 and p-value <0.05 to determine statistical significance. The Z-factor (z) was calculated using the following equation
For each complex LASER-Seq was carried out on four types of samples, denoted PAL, PRE, UV, and NUL. PAL samples were prepared by photoaffinity labeling of complexes with 300 μM AzAt, a concentration close to saturating for photoincorporation (FIG. 2C). PRE samples were prepared using separately prephotolyzed AzAt that was re-irradiated in the presence of complexes. UV and NUL samples were prepared in the absence of AzAt by either subjecting complexes to uv irradiation (UV) or just analyzing complexes directly (NUL).
The sites of modification arising exclusively via nitrene formation on irradiation of AzAt was first identified by the mutation rate fold change of PAL vs. PRE samples, a procedure which corrects for mutation rates arising from noncovalent binding, or covalent photoincorporation of pre-photolyzed AzAt, or uv-induced mutations not related to AzAt (Table 4). The results obtained for the ≥6,006 nucleotides present in these two complexes are presented in FIG. 3A, FIG. 3B, FIG. 3C and FIG. 3D. […]

| SMILES | effect on Vmax values [1] | mutation rate change, 26S-A1437 [2] | mutation rate change, 26S-A1438 [2] | mutation rate change, IRES-A142 [2] | mutation rate change, IRES-G186 [2] | mutation rate change, IRES-U177 [2] | mutation rate fold-increase PAL vs. PRE, 18S-A1195 ([2]; in both complexes) |
| --- | --- | --- | --- | --- | --- | --- | --- |
| O=C(O)c1cccc(-c2noc(-c3ccccc3F)n2)c1 [Ataluren] | unaffected |  |  |  |  |  |  |
| [N-]=[N+]=Nc1ccc(-c2nc(-c3cccc(C(=O)O)c3)no2)cc1 [AzAt] |  | 1.4 fold | 1.3 fold | 1.4 fold | 2.0 fold | 2.4 fold | ~9 fold |
